Laboratory results: patent US9309285B2, “Macrocyclic broad spectrum antibiotics” (priority 2012, dated 2016)
Like-named read-outs stand apart in the source and are kept apart here.

How the values were obtained:
[1] = tested on: Escherichia coli MC4100 harboring the IMP4213; test: MIC by broth micro-dilution (CLSI), E. coli; type: cell-based; conditions: E. coli MC4100 IMP4213 (increased outer-membrane permeability); cation adjusted Mueller Hinton Broth + 0.002% Tween-80; 35° C., 22 hours
Protocol: (§1) In vitro antimicrobial activity of each compound was determined by measuring minimal inhibitor concentrations (MICs) using the broth micro-dilution technique as approved by the Clinical and Laboratory Standards Institute (CLSI) (Methods for Dilution Antimicrobial Susceptibility Tests for Bacteria that Grow Aerobically; Approved Standard—Eighth Edition. CLSI document M07-A8. Wayne, Pa.: Clinical and Laboratroy Standards; 2009). Antibacterial activity was measure against two strains of bacteria: a Methicillin Resistant Staphylococcus aureus strain USA 300 (NRS384) and a strain of Escherichia coli MC4100 harboring the IMP4213, which results in increased outer-membrane permeability (B Martin and Silhavy T. Imp/OstA is required for cell envelope biogenesis in Escherichia coli. (2002) Molecular Microbiology, 45(5), 1289-1302). Cells were inoculated onto plates of Trypyticase Soy Agar or Luria Agar respectively and grown at 35° C. for 20 hours. Inocula suspensions were prepared by scraping cells into 1 ml of testing media (cation adjusted Mueller Hinton Broth supplemented with 0.002% v/v Tween-80) and diluting to a final OD600 nm of 0.01.
Test compounds were prepared in DMSO at a concentration of 10 mg/ml. […]

[2] = tested on: Methicillin Resistant Staphylococcus aureus strain USA 300 (NRS384); test: MIC by broth micro-dilution (CLSI), S. aureus; type: cell-based; conditions: MRSA USA 300 (NRS384), cation adjusted Mueller Hinton Broth + 0.002% Tween-80, 35° C., 22 hours; for MIC: Staphylococcus aureus, MRSA / NRS 384 / USA300, read-out: MIC (μg/mL) S. aureus
Protocol: as §1
Test compounds were prepared in DMSO at a concentration of 10 mg/ml. These compound stocks were diluted into testing media at a concentration of 64 μg/ml and serial 2-fold dilutions were made in the same media, in 96-well U bottom microtiter dishes, for a total of 10 compound concentrations. Inocula suspensions were added to the 2-fold serial dilutions of test compounds to a final density of OD OD600 nm of 0.0005 and incubated at 35° C. for 22 hours.

E. coli SPase = target: T1, E. coli SPase (Escherichia coli, UniProt P00803); test: SPase enzyme inhibition assay, fluorogenic peptide substrate, E. coli; type: biochemical
T1 construct: Full length His-tagged E. coli and S. aureus SPase proteins were expressed in E. coli BL21; His tag; made in house; host or cells: E. coli BL21 (DE3)
T1 sequence (P00803 whole entry): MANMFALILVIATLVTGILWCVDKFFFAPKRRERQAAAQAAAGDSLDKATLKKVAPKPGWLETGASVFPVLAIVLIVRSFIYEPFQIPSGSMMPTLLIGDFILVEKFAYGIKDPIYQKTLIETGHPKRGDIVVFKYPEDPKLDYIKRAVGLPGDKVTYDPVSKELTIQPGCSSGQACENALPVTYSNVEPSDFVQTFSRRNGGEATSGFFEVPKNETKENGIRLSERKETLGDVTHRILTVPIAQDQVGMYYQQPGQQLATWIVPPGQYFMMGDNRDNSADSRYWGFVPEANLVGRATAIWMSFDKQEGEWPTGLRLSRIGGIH
Protocol: (§2) Briefly, for expression of E. coli SPase, saturated overnight cultures grown in 20 ml of Luria-Bertani medium supplemented with ampicillin were subcultures into 1.5 L of Luria-Bertani, and shaken at 37° C. until an optical density at 600 nm of 0.4-0.5 was achieved. […] S. aureus SPase was expressed and purified similarly, with the following exceptions. […] Resin bound protein was washed in a similar buffer containing 1% Elugent in place of Triton X-100 prior to protein elution in wash buffer supplemented with 300 mM imidazole. […] All protein concentrations were determined by BCA assay.
(§3) Enzyme master solution was prepared by diluting Escherichia coli or Staphylococcus aureus SPase protein into reaction buffer to a final concentration of 3 nM or 10 nM respectively. Reaction buffer consisted of 20 mM NaKHPO4 pH 7.4, 100 mM NaCl, and 1% v/v Elugent™ detergent. Reactions were initiated by the addition of substrate to a final concentration of 20 μM. Reaction progress was monitored by measuring the increase in fluorescence signal (excitation at 314 nm, emission at 416 nm) using a SpectraMax M2 fluorescence microplate reader. […] Three-folder serial dilutions of test compounds, starting at 10 μM, were prepared in enzyme mix solution and incubated at room temperature for 10 minutes. Following this incubation, fluorogenic substrate was added to a final concentration of 20 μM and the increase in fluorescence, corresponding to substrate cleavage, was monitored continuously at room temperature for 1 hour. Initial reaction rates were calculated based on the rate of increase in fluorescence during the reaction. Reaction rates were plotted as a function of compound concentration, and IC50 values were determined nonlinear regression analysis (SoftMaxPro 5.4, Molecular Devices™) of the sigmoidal dose-response curve.

S. aureus SPase = target: T2, S. aureus SPase (Staphylococcus aureus, UniProt P0A070); test: SPase enzyme inhibition assay, fluorogenic peptide substrate, S. aureus; type: biochemical
T2 construct: Full length His-tagged E. coli and S. aureus SPase proteins were expressed in E. coli BL21; His tag; made in house; host or cells: E. coli BL21 (DE3)
T2 sequence (P0A070 1-191): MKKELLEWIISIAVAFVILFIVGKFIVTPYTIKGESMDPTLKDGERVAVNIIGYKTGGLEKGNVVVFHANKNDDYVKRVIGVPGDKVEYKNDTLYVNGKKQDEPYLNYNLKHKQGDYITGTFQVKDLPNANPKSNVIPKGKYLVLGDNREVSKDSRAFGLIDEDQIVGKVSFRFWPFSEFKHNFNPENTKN
Protocol: as §2, §3

[3] = 3 nM E. coli SPase, 20 μM substrate, 10 minutes pre-incubation, room temperature, read-out: IC 50 (nM) E. coli
[4] = read-out: IC 50 (nM) S. aureus, 10 nM S. aureus SPase, 20 μM substrate, 10 minutes pre-incubation, room temperature

SMILES | MIC (μg/mL) E. coli [1] [µg/mL] | MIC (μg/mL) S. aureus [2] [µg/mL] | IC50 (E. coli SPase; [3]) [nM] | IC50 (S. aureus SPase; 10 nM S. aureus SPase, 20 μM substrate, 10 minutes pre-incubation, room temperature, read-out: IC 50 (nM) S. aureus) [nM] | MIC [2] [µg/mL] | IC50 (S. aureus SPase) [nM] | IC50 (E. coli SPase) [nM] | IC50 (S. aureus SPase; [4]) [nM]
CCCCc1ccc(-c2ccc(C(=O)NCC(C)C(=O)N[C@@H](CCN)C(=O)N(C)[C@@H]3C(=O)N[C@@H](C)C(=O)N[C@H](C(=O)O)Cc4ccc(O)c(c4)-c4cc3ccc4O)cc2)cc1 (single isomer, unassigned) [Compound 115] | >64 | 64 | 630 | 1900 |  |  |  | 
CCCCc1ccc(-c2ccc(C(=O)NC[C@@H](C)C(=O)N[C@@H](CCCCN)C(=O)N(C)[C@@H]3C(=O)N[C@@H](C)C(=O)N[C@H](C(=O)O)Cc4ccc(O)c(c4)-c4cc3ccc4O)cc2)cc1 [Compound 103] |  |  | 1.3 |  | 2.1 | 8 |  | 
CCCCCCCCCCCCCC(=O)NCCC(=O)N[C@@H](CCCCN)C(=O)N(C)[C@@H]1C(=O)N[C@@H](C)C(=O)N[C@H](C(=O)O)Cc2ccc(O)c(c2)-c2cc1ccc2O [Compound 105] |  |  | 1.3 |  | 0.63 | 16 |  | 
CCCCc1ccc(-c2ccc(C(=O)NC(C)CC(=O)N[C@@H](CCCCN)C(=O)N(C)[C@@H]3C(=O)N[C@@H](C)C(=O)N[C@H](C(=O)O)Cc4ccc(O)c(c4)-c4cc3ccc4O)cc2)cc1 (stereo partly shown) [Compound 106] |  |  | 2.9 |  | 2 | 8.8 |  | 
CCCCc1ccc(-c2ccc(C(=O)N[C@@H](C)CC(=O)N[C@@H](CCCCN)C(=O)N(C)[C@@H]3C(=O)N[C@@H](C)C(=O)N[C@H](C(=O)O)Cc4ccc(O)c(c4)-c4cc3ccc4O)cc2)cc1 [Compound 107] |  |  | 0.6 |  | 11 | 2.6 |  | 
CCCCc1ccc(-c2ccc(C(=O)NCC(=O)N[C@@H](CCCCN)C(=O)N(C)[C@@H]3C(=O)N[C@@H](C)C(=O)N[C@H](C(=O)O)Cc4ccc(O)c(c4)-c4cc3ccc4O)cc2)cc1 [Compound 108] |  |  | 2.4 |  | 8 | 110 |  | 
CCCCc1ccc(-c2ccc(C(=O)NC[C@@H](N)C(=O)N[C@@H](CCCCN)C(=O)N(C)[C@@H]3C(=O)N[C@@H](C)C(=O)N[C@H](C(=O)O)Cc4ccc(O)c(c4)-c4cc3ccc4O)cc2)cc1 [Compound 109] |  |  | 11 |  | > 64 | 15 |  | 
CCCCc1ccc(-c2ccc(C(=O)NCCC(=O)N(C)[C@@H]3C(=O)N[C@@H](C)C(=O)N[C@H](C(=O)O)Cc4ccc(O)c(c4)-c4cc3ccc4O)cc2)cc1 [Compound 112] |  |  | 850 |  | > 64 | 7200 |  | 
CCCCc1ccc(-c2ccc(C(=O)NCC(C)C(=O)N[C@@H](CCCN)C(=O)N(C)[C@@H]3C(=O)N[C@@H](C)C(=O)N[C@H](C(=O)O)Cc4ccc(O)c(c4)-c4cc3ccc4O)cc2)cc1 (stereo partly shown) [Compound 113] |  |  | 3.6 |  | 4 | 69 |  | 
CCCCc1ccc(-c2ccc(C(=O)N(C)[C@@H]3C(=O)N[C@@H](C)C(=O)N[C@H](C(=O)O)Cc4ccc(O)c(c4)-c4cc3ccc4O)cc2)cc1 [Compound 116] |  |  | > 10000 |  | > 64 | > 10000 |  | 
CCCCc1ccc(-c2ccc(C(=O)N[C@@H](CCCCN)C(=O)NCCC(=O)N(C)[C@@H]3C(=O)N[C@@H](C)C(=O)N[C@H](C(=O)O)Cc4ccc(O)c(c4)-c4cc3ccc4O)cc2)cc1 [Compound 117] |  |  | 760 |  | > 64 | 3900 |  | 
CCCCc1ccc(-c2ccc(C(=O)N[C@@H](CCCCN)C(=O)N(C)[C@@H]3C(=O)N[C@@H](C)C(=O)N[C@H](C(=O)N[C@@H](C)B4O[C@@H]5C[C@@H]6C[C@@H](C6(C)C)[C@]5(C)O4)Cc4ccc(O)c(c4)-c4cc3ccc4O)cc2)cc1 [Compound 121] |  |  | 29 |  | 0.71 | 110 |  | 
CCCCCCCC(=O)NCCC(=O)N[C@@H](CCCCN)C(=O)N(C)[C@@H]1C(=O)N[C@@H](C)C(=O)N[C@H](C(=O)N[C@@H](C)B2O[C@@H]3C[C@@H]4C[C@@H](C4(C)C)[C@]3(C)O2)Cc2ccc(O)c(c2)-c2cc1ccc2O [Compound 123] |  |  | 20 |  | 64 | 18 |  | 
CCCCCCCC(=O)N[C@@H](CCCCN)C(=O)N(C)[C@@H]1C(=O)N[C@@H](C)C(=O)N[C@H](C(=O)N[C@@H](C)B2O[C@@H]3C[C@@H]4C[C@@H](C4(C)C)[C@]3(C)O2)Cc2ccc(O)c(c2)-c2cc1ccc2O [Compound 125] |  |  | 26 |  | 23 | 64 |  | 
CCCCCCCC(=O)N[C@@H](CCCCN)C(=O)N(C)[C@@H]1C(=O)N[C@@H](C)C(=O)N[C@H](C(=O)NCB2O[C@@H]3C[C@@H]4C[C@@H](C4(C)C)[C@]3(C)O2)Cc2ccc(O)c(c2)-c2cc1ccc2O [Compound 126] |  |  |  |  | 32 | 130 | 13 | 
C[C@@H]1NC(=O)[C@@H](N(C)C(=O)[C@H](CCCCN)NC(=O)c2ccc(-c3ccc(Cl)cc3)cc2)c2ccc(O)c(c2)-c2cc(ccc2O)C[C@@H](C(=O)N[C@@H](C)C(=O)N2CCC[C@H]2C(N)=O)NC1=O [Compound 132] |  |  |  |  | 6.1 | 5.9 | 26 | 
C[C@@H]1NC(=O)[C@@H](N(C)C(=O)[C@H](CCCCN)NC(=O)c2ccc(-c3ccc(Cl)cc3)cc2)c2ccc(O)c(c2)-c2cc(ccc2O)C[C@@H](C(=O)N[C@@H](C)C=O)NC1=O [Compound 134] |  |  | 0.8 |  | 10 | 8.2 |  | 
CCCCc1ccc(-c2ccc(C(=O)N[C@@H](CCCCN)C(=O)N[C@H]3COCCCCC[C@@H](C(=O)N[C@@H](C)B4OC5C[C@@H]6C[C@@H](C6(C)C)[C@]5(C)O4)NC(=O)[C@H](C)NC3=O)cc2)cc1 (stereo partly shown) [Compound 204] |  |  | 25 |  | 1.4 |  |  | 250
CCCCc1ccc(-c2ccc(C(=O)N[C@@H](CCCCN)C(=O)N[C@H]3COCCCCC[C@@H](C(=O)N[C@@H](C)B(O)O)NC(=O)[C@H](C)NC3=O)cc2)cc1 [Compound 205] |  |  | 30 |  | 2.8 |  |  | 280
CCCCc1ccc(-c2ccc(C(=O)N[C@@H](CCCCN)C(=O)N[C@H]3COCCCCOCC[C@@H](C(=O)N[C@@H](C)B4O[C@@H]5C[C@@H]6C[C@@H](C6(C)C)[C@]5(C)O4)NC(=O)[C@H](C)NC3=O)cc2)cc1 [Compound 207] |  |  | 21 |  | 1.3 | 210 |  | 
CCCCc1ccc(-c2ccc(C(=O)N[C@@H](CCCCN)C(=O)N(C)[C@@H]3C(=O)N[C@@H](C)C(=O)N[C@H](C(=O)N[C@@H](C)B4O[C@@H]5C[C@@H]6C[C@@H](C6(C)C)[C@]5(C)O4)CCCCc4cc3ccc4OC)cc2)cc1 [Compound 209] |  |  |  |  | 4 | 3700 | 84 | 
